Values after ≈ are worked out from the molar mass of the structure shown. Where two headings read alike, the source gives them in different places.
Columns and labels:
[1] = Solubility test (saturated solubility) in water; format: physicochemical
Source text: (2) Solubility test: to a suitable volume of water, adding a test sample until oversaturation occurred in the solution of the sample, vortexing, centrifuging, filtrating the supernatant and then diluting it to a suitable concentration, subjecting the sample to a liquid chromatographic instrument, and determining the saturated concentration of the sample (i.e., saturated solubility) by external standard method.

[2] = Soluble property test in water; format: physicochemical
Experimental: (1) Soluble property test: to a test sample, adding a corresponding solvent dropwise in a small amount for several times, shaking in a 25° C. thermostat water bath until the sample was completely dissolved, and calculating the dissolved concentration, i.e., soluble property.

[3] = Pharmacokinetics of different forms in beagle dogs; format: in vivo; conditions: capsule, 3 mg/kg
Experimental: Animal subject: beagle dogs, male, weighed 8˜14 kg, 3 dogs/crystal form. Beagle dogs were purchased from Beijing Marshall Biotechnology Co. Ltd.
Administration: three test samples were prepared into capsules, at an administration dose of 3 mg/kg according to body weight of dog.
About 37.3 mg of an amorphous compound was weighed, and packaged into hollow capsules (three capsules in total, one capsule per dog).
Blood was collected 10 min, 30 min, 1 h, 2 h, 4 h, 6 h, 8 h, and 24 h after administration. Before blood collection, the animals were fixed, and whole blood (about 400 μL) was collected from vein of forelimb at each time point, and added to K2EDTA-containing anticoagulation tubes. The whole blood sample was centrifuged for 6 min at 4° C., 8000 rpm in a high speed centrifuge, and plasma was separated. Plasma needed to be prepared within 30 min after blood collection, and plasma was stored at −80° C. in a refrigerator.
The plasma samples were analyzed by protein precipitation: to plasma (50 μL), an internal standard Afatinib dimaleate (200 μL, 50 ng/mL acetonitrile solution) was added; the resultant mixture was vortexed at 1500 rpm for 3 min, and centrifuged at 12000 rpm for 5 min; to the supernatant (100 μL), water (100 μL) was added; the resultant mixture was mixed homogeneously under vortexing and analyzed by LC-MS/MS for blood concentration.
PK parameters were calculated by using Pharsight Phoenix 6.2 software.

[4] = Stability of Crystal form II under influencing factor condition; format: physicochemical
Experimental: Test samples in culture dishes were left uncovered. The test samples, which were kept under influencing factor conditions (a high temperature of 60° C., 25° C.-high moisture RH 75%, and 25° C.-high moisture RH 92.5%, under the condition of light) for 5 days and 10 days, were studied for stability; and the test samples which were kept at 40° C. for 5 days, 10 days and 30 days, and the test samples which were kept at 25° C. for 30 days and 90 days, were studied for stability. Samples were separately taken at specified time points, and the items (moisture content (Coulomb), relevant substances, XRPD) were studied. In accordance with High Performance Liquid Chromatography in Appendix V D in Pharmacopoeia of the People's Republic of China (2010), samples were determined by area normalization method. The moisture content was determined in accordance with First Method for Determining Moisture Content B (Coulometric Titration) in Appendix VIII M in Pharmacopoeia of the People's Republic of China (2010).

[5] = system: erlotinib-resistant H1975 cell line; conditions: cited from earlier work
EGFR = EGFR (Homo sapiens, UniProt P00533); conditions: disclosed in WO2012027960A1; cited from earlier work
Sequence of EGFR (P00533 25-1210): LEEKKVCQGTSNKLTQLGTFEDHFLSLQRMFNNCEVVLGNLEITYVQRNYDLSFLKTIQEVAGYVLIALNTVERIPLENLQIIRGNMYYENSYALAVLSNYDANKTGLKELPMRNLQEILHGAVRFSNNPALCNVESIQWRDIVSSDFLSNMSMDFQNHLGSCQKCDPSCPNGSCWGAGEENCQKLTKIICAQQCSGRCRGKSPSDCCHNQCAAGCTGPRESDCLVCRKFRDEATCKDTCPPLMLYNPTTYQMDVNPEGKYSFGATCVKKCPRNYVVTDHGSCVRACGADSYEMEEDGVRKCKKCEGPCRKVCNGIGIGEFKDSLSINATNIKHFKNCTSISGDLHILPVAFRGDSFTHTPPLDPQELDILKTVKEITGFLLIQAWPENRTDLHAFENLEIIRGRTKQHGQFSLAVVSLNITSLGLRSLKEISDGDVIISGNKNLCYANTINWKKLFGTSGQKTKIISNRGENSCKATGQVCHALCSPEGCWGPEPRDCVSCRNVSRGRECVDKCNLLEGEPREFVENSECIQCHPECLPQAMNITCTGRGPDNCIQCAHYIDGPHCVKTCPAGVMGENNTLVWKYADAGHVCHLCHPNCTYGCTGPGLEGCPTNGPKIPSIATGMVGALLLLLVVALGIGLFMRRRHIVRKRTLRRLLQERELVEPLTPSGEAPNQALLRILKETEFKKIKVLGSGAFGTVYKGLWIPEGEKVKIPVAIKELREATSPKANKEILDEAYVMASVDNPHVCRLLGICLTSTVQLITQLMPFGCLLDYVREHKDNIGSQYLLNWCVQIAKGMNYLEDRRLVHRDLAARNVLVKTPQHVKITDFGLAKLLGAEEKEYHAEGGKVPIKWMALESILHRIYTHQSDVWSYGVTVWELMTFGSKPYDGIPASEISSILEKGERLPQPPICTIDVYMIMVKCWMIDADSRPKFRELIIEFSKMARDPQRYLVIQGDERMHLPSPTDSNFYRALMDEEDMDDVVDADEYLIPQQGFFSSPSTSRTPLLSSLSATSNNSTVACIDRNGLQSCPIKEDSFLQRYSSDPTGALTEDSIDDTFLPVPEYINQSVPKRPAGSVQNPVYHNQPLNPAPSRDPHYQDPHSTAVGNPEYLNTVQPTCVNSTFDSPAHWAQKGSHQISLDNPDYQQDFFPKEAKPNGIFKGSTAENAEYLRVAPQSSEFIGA

HER2 = HER2 (Homo sapiens, UniProt P04626); conditions: disclosed in WO2012027960A1; cited from earlier work
Sequence of HER2 (P04626 23-1255): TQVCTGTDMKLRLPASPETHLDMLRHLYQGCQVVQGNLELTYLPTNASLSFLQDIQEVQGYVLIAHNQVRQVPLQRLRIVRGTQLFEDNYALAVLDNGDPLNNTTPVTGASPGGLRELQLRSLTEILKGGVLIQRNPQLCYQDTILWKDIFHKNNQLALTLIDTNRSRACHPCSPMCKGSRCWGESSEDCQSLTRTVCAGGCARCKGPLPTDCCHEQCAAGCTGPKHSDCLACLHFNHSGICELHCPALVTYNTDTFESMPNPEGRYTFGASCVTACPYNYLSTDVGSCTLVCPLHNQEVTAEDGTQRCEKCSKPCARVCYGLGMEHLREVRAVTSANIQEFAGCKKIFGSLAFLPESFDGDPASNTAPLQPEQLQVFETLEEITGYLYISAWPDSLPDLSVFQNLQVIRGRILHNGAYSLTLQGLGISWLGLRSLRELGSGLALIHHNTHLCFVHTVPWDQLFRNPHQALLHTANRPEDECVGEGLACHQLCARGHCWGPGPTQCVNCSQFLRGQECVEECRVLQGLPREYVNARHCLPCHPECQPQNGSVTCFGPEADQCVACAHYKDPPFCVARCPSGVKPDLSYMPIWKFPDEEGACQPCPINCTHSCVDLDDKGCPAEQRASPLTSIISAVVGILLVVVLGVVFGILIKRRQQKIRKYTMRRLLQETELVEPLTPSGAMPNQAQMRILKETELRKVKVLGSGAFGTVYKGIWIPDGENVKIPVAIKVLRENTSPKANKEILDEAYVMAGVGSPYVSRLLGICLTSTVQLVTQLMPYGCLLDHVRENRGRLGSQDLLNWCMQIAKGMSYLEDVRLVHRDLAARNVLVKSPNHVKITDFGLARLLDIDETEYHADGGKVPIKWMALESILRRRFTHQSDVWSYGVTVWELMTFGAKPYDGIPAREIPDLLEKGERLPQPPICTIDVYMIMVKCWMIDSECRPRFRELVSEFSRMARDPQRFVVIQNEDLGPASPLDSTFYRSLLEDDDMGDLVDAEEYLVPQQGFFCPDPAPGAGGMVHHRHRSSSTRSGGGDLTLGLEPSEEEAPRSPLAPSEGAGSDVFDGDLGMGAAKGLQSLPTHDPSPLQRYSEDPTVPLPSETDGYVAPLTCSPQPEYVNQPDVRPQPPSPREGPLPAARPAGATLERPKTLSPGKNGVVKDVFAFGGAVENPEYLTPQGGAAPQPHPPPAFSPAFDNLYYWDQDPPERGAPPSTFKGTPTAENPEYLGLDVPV

HER4 = HER4 (Homo sapiens, UniProt Q15303); conditions: disclosed in WO2012027960A1; cited from earlier work
Sequence of HER4 (Q15303 26-1308): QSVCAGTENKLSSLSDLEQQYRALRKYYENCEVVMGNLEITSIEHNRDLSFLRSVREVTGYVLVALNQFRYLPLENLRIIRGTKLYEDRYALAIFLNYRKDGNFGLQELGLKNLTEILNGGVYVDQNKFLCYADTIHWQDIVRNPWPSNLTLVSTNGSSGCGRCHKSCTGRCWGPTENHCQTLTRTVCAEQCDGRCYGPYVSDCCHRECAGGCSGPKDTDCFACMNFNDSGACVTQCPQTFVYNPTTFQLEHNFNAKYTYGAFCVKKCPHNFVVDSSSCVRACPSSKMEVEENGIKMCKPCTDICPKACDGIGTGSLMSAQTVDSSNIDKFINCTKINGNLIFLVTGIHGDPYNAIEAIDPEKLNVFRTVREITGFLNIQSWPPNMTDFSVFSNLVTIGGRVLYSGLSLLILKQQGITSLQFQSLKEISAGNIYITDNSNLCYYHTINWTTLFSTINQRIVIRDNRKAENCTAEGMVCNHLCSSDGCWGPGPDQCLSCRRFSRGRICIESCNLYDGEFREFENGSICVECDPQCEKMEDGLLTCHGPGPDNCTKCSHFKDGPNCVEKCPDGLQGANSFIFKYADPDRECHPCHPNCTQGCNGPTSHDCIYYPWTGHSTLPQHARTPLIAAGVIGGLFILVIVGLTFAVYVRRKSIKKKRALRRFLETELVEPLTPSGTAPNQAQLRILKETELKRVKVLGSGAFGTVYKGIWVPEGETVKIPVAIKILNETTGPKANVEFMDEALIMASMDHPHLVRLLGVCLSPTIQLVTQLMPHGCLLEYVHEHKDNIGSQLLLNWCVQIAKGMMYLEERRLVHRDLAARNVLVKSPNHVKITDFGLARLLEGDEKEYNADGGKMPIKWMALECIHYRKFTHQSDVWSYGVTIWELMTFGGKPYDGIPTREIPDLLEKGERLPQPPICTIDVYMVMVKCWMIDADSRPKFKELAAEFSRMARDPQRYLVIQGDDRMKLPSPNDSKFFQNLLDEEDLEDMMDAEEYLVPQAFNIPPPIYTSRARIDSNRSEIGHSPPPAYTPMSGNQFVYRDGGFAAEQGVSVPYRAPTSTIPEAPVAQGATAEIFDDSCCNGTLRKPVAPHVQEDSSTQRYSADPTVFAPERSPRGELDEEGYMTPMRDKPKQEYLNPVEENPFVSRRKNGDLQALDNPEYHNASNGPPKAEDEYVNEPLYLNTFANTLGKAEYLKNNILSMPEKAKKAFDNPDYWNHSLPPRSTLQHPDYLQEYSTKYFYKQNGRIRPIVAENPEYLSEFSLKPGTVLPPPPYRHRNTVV

[6] = Stability of Crystal form I under influencing factor condition (high temperature of 60° C.); format: physicochemical
Experimental: A test sample was kept under influencing factor condition (a high temperature of 60° C.) for 30 d. Samples were separately taken at specified time points, and compared with the sample at Day 0. XRPD, relevant substances, contents, character, acidity, moisture content, and the like were determined. During the study, samples were packaged with plastic bags and sealed with aluminum foil outside.
(§1) In accordance with High Performance Liquid Chromatography in Appendix V D in Pharmacopoeia of the People's Republic of China (2010), samples at Day 0 were used as control samples, and samples were determined by external standard method.
(§2) In accordance with High Performance Liquid Chromatography in Appendix V D in Pharmacopoeia of the People's Republic of China (2010), samples were determined by area normalization method.
(§3) The moisture content was determined in accordance with First Method for Determining Moisture Content B (Coulometric Titration) in Appendix VIII M in Pharmacopoeia of the People's Republic of China (2010).

[7] = Stability of Crystal form I under accelerated condition and long-term condition; format: physicochemical
Experimental: Test samples were kept under accelerated condition (40° C.+RH 75%) for 6 months. Samples were separately taken at specified time points. XRPD, character, relevant substances, content, acidity, moisture content and the like were studied.
Test samples were kept under long-term condition (25° C.) for 6 months. Samples were separately taken at specified time points. Important items of stability (relevant substances) were studied.
At the last time point of the accelerated condition and long-term condition, XRPD, character, relevant substances, content, pH, moisture content and the like were studied.
as §1, §2, §3

[8] = as above; format: physicochemical; conditions: 30° C. 1 month
[9] = RH75% 5 days, 25° C., uncovered
[10] = RH75% 10 days, 25° C., uncovered
[11] = RH92.5% 5 days, 25° C., uncovered
[12] = RH92.5% 10 days, 25° C., uncovered

C=CC(=O)Nc1cc2c(Nc3ccc(F)c(Cl)c3)ncnc2cc1OCC1CC2(CCN(C)CC2)C1 [Crystal form II, N-(4-((3-chloro-4-fluorophenyl)amino)-7-((7-methyl-7-azaspiro[3.5]nonan-2-yl)methoxy)quinazolin-6-yl)acrylamide]
Solubility (saturated solubility) [1]: solubility: 28.94 mg/mL
Soluble property ([2]; 25° C.): property: 23.23) mg/mL
Soluble property (descriptive term) ([2]; 25° C.): slightly soluble, (soluble
AUC0-t [3]: 110 ng·h/mL
AUCinf [3]: 111 ng·h/mL
Cmax [3]: 14.6 ng/mL
T1/2 [3]: 3.98 h
Tmax [3]: 2.00 h
Moisture content ([4]; 0 day): 13.1%
Relevant substances ([4]; 0 day): 1.2%
Moisture content ([4]; 25° C. 3 months, uncovered): 13.4%
Relevant substances ([4]; 25° C. 3 months, uncovered): 1.3%
Moisture content ([4]; 25° C. 30 days, uncovered): 13.1%
Relevant substances ([4]; 25° C. 30 days, uncovered): 1.3%
Crystal form XRPD ([4]; 40° C. 5 days, uncovered): Crystal form I
Moisture content ([4]; 40° C. 5 days, uncovered): 4.5%
Relevant substances ([4]; 40° C. 5 days, uncovered): 1.3%
Crystal form XRPD ([4]; 40° C. 10 days, uncovered): Crystal form I
Moisture content ([4]; 40° C. 10 days, uncovered): 5.6%
Relevant substances ([4]; 40° C. 10 days, uncovered): 1.6%
Crystal form XRPD ([4]; 40° C. 30 days, uncovered): Crystal form I
Moisture content ([4]; 40° C. 30 days, uncovered): 5.3%
Relevant substances ([4]; 40° C. 30 days, uncovered): 3.0%
Crystal form XRPD ([4]; 60° C. 5 days, uncovered): Crystal form I
Moisture content ([4]; 60° C. 5 days, uncovered): 4.4%
Relevant substances ([4]; 60° C. 5 days, uncovered): 1.8%
Crystal form XRPD ([4]; 60° C. 10 days, uncovered): Crystal form I
Moisture content ([4]; 60° C. 10 days, uncovered): 5.3%
Relevant substances ([4]; 60° C. 10 days, uncovered): 2.3%
Moisture content ([4]; Light 5 days, uncovered): 13.2%
Relevant substances ([4]; Light 5 days, uncovered): 1.5%
Moisture content ([4]; Light 10 days, uncovered): 13.3%
Relevant substances ([4]; Light 10 days, uncovered): 1.8%
Moisture content [4, 9]: 13.2%
Relevant substances [4, 9]: 1.3%
Moisture content [4, 10]: 13.3%
Relevant substances [4, 10]: 1.3%
Moisture content [4, 11]: 13.4%
Relevant substances [4, 11]: 1.2%
Moisture content [4, 12]: 13.5%
Relevant substances [4, 12]: 1.3%
Overall stability conclusion ([4]; Table 5 conditions): sensitive to high temperature conditions

C=CC(=O)Nc1cc2c(Nc3ccc(F)c(Cl)c3)ncnc2cc1OCC1CC2(CCN(C)CC2)C1 [Formula (I), N-(4-((3-chloro-4-fluorophenyl)amino)-7-((7-methyl-7-azaspiro[3.5]nonan-2-yl)methoxy)quinazolin-6-yl)acrylamide]
Inhibitory effect on H1975 cell line [5]: significantly inhibitory effect
Inhibition of EGFR (EGFR): effectively inhibit EGFR
Inhibitory effect on HER2 (HER2): inhibitory effect
Inhibitory effect on HER4 (HER4): inhibitory effect

C=CC(=O)Nc1cc2c(Nc3ccc(F)c(Cl)c3)ncnc2cc1OCC1CC2(CCN(C)CC2)C1 [Amorphous form, N-(4-((3-chloro-4-fluorophenyl)amino)-7-((7-methyl-7-azaspiro[3.5]nonan-2-yl)methoxy)quinazolin-6-yl)acrylamide]
AUC0-t [3]: 68.6 ng·h/mL
AUCinf [3]: 79.9 ng·h/mL
Cmax [3]: 16.6 ng/mL
T1/2 [3]: 2.47 h
Tmax [3]: 2.00 h

C=CC(=O)Nc1cc2c(Nc3ccc(F)c(Cl)c3)ncnc2cc1OCC1CC2(CCN(C)CC2)C1 [Crystal form I, N-(4-((3-chloro-4-fluorophenyl)amino)-7-((7-methyl-7-azaspiro[3.5]nonan-2-yl)methoxy)quinazolin-6-yl)acrylamide]
Content ([6]; 0 day): 100.8%
Moisture content ([6]; 0 day): 3.9%
Relevant substances ([6]; 0 day): 0.15%
pH ([6]; 0 day): 2.8
Content ([6]; 60° C.-covered-1 month): 100.7%
Moisture content ([6]; 60° C.-covered-1 month): 4.4%
Relevant substances ([6]; 60° C.-covered-1 month): 0.20%
pH ([6]; 60° C.-covered-1 month): 2.8
Content ([6]; 60° C.-covered-5 days): 100.9%
Moisture content ([6]; 60° C.-covered-5 days): 4.5%
Relevant substances ([6]; 60° C.-covered-5 days): 0.23%
pH ([6]; 60° C.-covered-5 days): 2.8
Content ([6]; 60° C.-covered-10 days): 100.7%
Moisture content ([6]; 60° C.-covered-10 days): 4.5%
Relevant substances ([6]; 60° C.-covered-10 days): 0.24%
pH ([6]; 60° C.-covered-10 days): 2.7
Overall stability conclusion ([6]; kept under various conditions for 1 month (Tables 3 and 4)): high stability
Content ([7]; 0 day): 100.8%
Moisture content ([7]; 0 day): 3.9%
Relevant substances ([7]; 0 day): 0.15%
pH ([7]; 0 day): 2.8
Content ([7]; 25° C. 1 month): 100.7%
Moisture content ([7]; 25° C. 1 month): 4.2%
Relevant substances ([7]; 25° C. 1 month): 0.18%
pH ([7]; 25° C. 1 month): 2.8
Content ([7]; 40° C. 1 month): 100.9%
Moisture content ([7]; 40° C. 1 month): 4.6%
Relevant substances ([7]; 40° C. 1 month): 0.19%
pH ([7]; 40° C. 1 month): 2.8
solubility ([1]; thermodynamic from solid): 39.1 mg/mL (≈ 76.7 mM)
Content [8]: 100.8%
Moisture content [8]: 4.3%
Relevant substances [8]: 0.18%
pH [8]: 2.8
Soluble property (descriptive term) ([2]; 25° C.): slightly soluble, (soluble
solubility ([2]; 25 °C, thermodynamic from solid): 20 mg/mL (≈ 39.2 mM)
T1/2 [3]: 4.95 h
AUC(0-inf) ([3]; male, beagle, dog, plasma, po): 115 ng·h/mL
AUC0-t ([3]; male, beagle, dog, plasma, po, read-out: AUC0-t): 112 ng·h/mL
Cmax ([3]; male, beagle, dog, plasma, po, read-out: Cmax): 15.3 ng/mL
Tmax ([3]; male, dog, plasma, po, read-out: Tmax): 2 h

Reference: patent US10633364B2, “Crystals of quinazoline derivative and preparation method therefor” (Xuanzhu Pharma Co., Ltd., priority 2015, dated 2020)
